Experimental data as given in patent US7781644B2, “Arabidosis AtLEJ1 gene involved in inhibiting biosynthesis of jasmonic acid and ethylene and method for producing male-sterile plant using the same” (Korea University Industry and Academy Cooperation Foundation, priority 2006, dated 2010).

Key:
[1] = system: male-sterile AtLEJ1-overexpressed plant; assay: Restoration of male-sterile AtLEJ1-overexpressed plant to fertile phenotype by hormone treatment of flower bud cluster; type: in vivo, Arabidopsis
Procedure: First, a flower bud cluster of the AtLEJ1-overexpressed plant was treated with 500 μM jasmonic acid. For a negative control, non-treatment or water alone, was provided.
(§1) The flowers obtained day 2 after treatment with jasmonic acid were embedded in paraffin (Paraplast) and then stained with phloroglucinol for microscopic observation.

[2] = system: endothecium cells of stamens of the AtLEJ1-overexpressed plant; assay: Phloroglucinol staining of paraffin sections for lignification of endothecium cells of stamens after hormone treatment; type: in vivo, Arabidopsis
Excerpt: In order to examine the developmental process of anthers at the cell level, flowers of the wild-type and the AtLEJ1-overexpressed plant were dipped in a fixing solution, dehydrated with a series of ethanol solutions, and embedded in paraffin (Paraplast), followed by microtome section at 8 μm. The sections were stained with 2% phloroglucinol to visualize the lignification of the endothecium cells, known to play an important role in anther dehiscence, and were washed with 9N HCl.
as §1

| Compound | restoration to a fertile phenotype ([1]; 500 μM jasmonic acid on flower bud cluster, one week after treatment, control remained sterile (FIG. 10)) | anther dehiscence (microscopic observation of treated flowers) ([1]; 500 μM jasmonic acid, day 2 after treatment) | lignification of endothecium cells of stamens (phloroglucinol staining) ([2]; 500 μM jasmonic acid, flowers obtained day 2 after treatment (FIG. 11)) | restoration to a fertile phenotype ([1]; treatment with 50 mM ACC (FIG. 12)) | restoration to a fertile phenotype ([1]; treatment with 500 mM ACC (FIG. 12)) | lignification of endothecium cells of stamens ([2]; ACC-treated plant, 50 mM or 500 mM (FIG. 13)) |
| --- | --- | --- | --- | --- | --- | --- |
| CC/C=C\C[C@H]1C(=O)CC[C@@H]1CC(=O)O [jasmonic acid] | at least partly, restored to a fertile phenotype | observed to enter anther dehiscence | lignified |  |  |  |
| NC1(C(=O)O)CC1 [ACC, 1-aminocyclopropane-1-carboxylic acid] |  |  |  | restored to a fertile phenotype | restored to a fertile phenotype | Lignification was also found |
